Literature values, collected in patent publication US20100310668A1, “PHARMACEUTICAL COMPOSITIONS COMPRISING N-[2-(DIETHYLAMINO)ETHYL]-5-[(5-FLUORO-1,2-DIHYDRO-2-OXO-3H-INDOL-3-YLIDENE)METHYL]-2,4-DIMETHYL-1H-PYRROLE-3-CARBOXAMIDE” (ratiopharm GmbH, priority 2008, published 2010).

Conditions: solid (crystalline) form obtained by known manufacturing processes

Question: Which solubility in water does the source give for `CCN(CC)CCNC(=O)c1c(C)[nH]c(/C=C2\C(=O)Nc3ccc(F)cc32)c1C` [compound I, N-[2-(diethylamino)ethyl]-5-[(5-fluoro-1,2-dihydro-2-oxo-3H-indol-3-ylidene)methyl]-2,4-dimethyl-1H-pyrrole-3-carboxamide] here?
Answer: poor
